Assay results as given in patent US6693216B2, “Calcium double salts” (Nutrinova Nutrition Specialties & Food Ingredients GmbH, priority 2000, dated 2004).
Read-outs that look alike come from different tables or passages of the source.

How the values were obtained:
Settings in all cases: Part II, 1 g/l in apple juice pH 4.5, 25° C.
Lactic acid bacteria = system: Lactic acid bacteria
Acetic acid bacteria = system: Acetic acid bacteria
Yeasts = system: Yeasts
Gram-positive bacteria = system: Gram-positive bacteria
Molds II = system: Molds II
Thermophilic bacilli = system: Thermophilic bacilli
Gram-negative bacteria = system: Gram-negative bacteria
Bacilli = system: Bacilli
Molds I = system: Molds I
Clostridia = system: Clostridia
[1] = 1 day after inoculation (2.7 × 10^4)
[2] = 3 days after inoculation (2.7 × 10^4)
[3] = 7 days after inoculation (2.7 × 10^4)
[4] = 14 days after inoculation (2.7 × 10^4)
[5] = 1 day after inoculation (2.8 × 10^4)
[6] = 3 days after inoculation (2.8 × 10^4)
[7] = 7 days after inoculation (2.8 × 10^4)
[8] = 14 days after inoculation (2.8 × 10^4)
[9] = 1 day after inoculation (2.6 × 10^4)
[10] = 3 days after inoculation (2.6 × 10^4)
[11] = 7 days after inoculation (2.6 × 10^4)
[12] = 14 days after inoculation (2.6 × 10^4)
[13] = 1 day after inoculation (2.1 × 10^4)
[14] = 3 days after inoculation (2.1 × 10^4)
[15] = 7 days after inoculation (2.1 × 10^4)
[16] = 14 days after inoculation (2.1 × 10^4)
[17] = 1 day after inoculation (2.5 × 10^4)
[18] = 3 days after inoculation (2.5 × 10^4)
[19] = 7 days after inoculation (2.5 × 10^4)
[20] = 14 days after inoculation (2.5 × 10^4)
[21] = 1 day after inoculation (1.3 × 10^4)
[22] = 3 days after inoculation (1.3 × 10^4)
[23] = 7 days after inoculation (1.3 × 10^4)
[24] = 14 days after inoculation (1.3 × 10^4)
[25] = 1 day after inoculation (3.3 × 10^4)
[26] = 3 days after inoculation (3.3 × 10^4)
[27] = 7 days after inoculation (3.3 × 10^4)
[28] = 14 days after inoculation (3.3 × 10^4)
[29] = 1 day after inoculation (2.2 × 10^4)
[30] = 3 days after inoculation (2.2 × 10^4)
[31] = 7 days after inoculation (2.2 × 10^4)
[32] = 14 days after inoculation (2.2 × 10^4)

Compound	Number of surviving microorganisms per g of contaminated sample, Lactic acid bacteria (Lactic acid bacteria; [1])	Number of surviving microorganisms per g of contaminated sample, Lactic acid bacteria (Lactic acid bacteria; [2])	Number of surviving microorganisms per g of contaminated sample, Lactic acid bacteria (Lactic acid bacteria; [3])	Number of surviving microorganisms per g of contaminated sample, Lactic acid bacteria (Lactic acid bacteria; [4])	Number of surviving microorganisms per g of contaminated sample, Acetic acid bacteria (Acetic acid bacteria; [5])	Number of surviving microorganisms per g of contaminated sample, Acetic acid bacteria (Acetic acid bacteria; [6])	Number of surviving microorganisms per g of contaminated sample, Acetic acid bacteria (Acetic acid bacteria; [7])	Number of surviving microorganisms per g of contaminated sample, Acetic acid bacteria (Acetic acid bacteria; [8])	Number of surviving microorganisms per g of contaminated sample, Yeasts (Yeasts; [9])	Number of surviving microorganisms per g of contaminated sample, Yeasts (Yeasts; [10])	Number of surviving microorganisms per g of contaminated sample, Yeasts (Yeasts; [11])	Number of surviving microorganisms per g of contaminated sample, Yeasts (Yeasts; [12])	Number of surviving microorganisms per g of contaminated sample, Gram-positive bacteria (Gram-positive bacteria; [13])	Number of surviving microorganisms per g of contaminated sample, Gram-positive bacteria (Gram-positive bacteria; [14])	Number of surviving microorganisms per g of contaminated sample, Gram-positive bacteria (Gram-positive bacteria; [15])	Number of surviving microorganisms per g of contaminated sample, Gram-positive bacteria (Gram-positive bacteria; [16])	Number of surviving microorganisms per g of contaminated sample, Molds II (Molds II; [17])	Number of surviving microorganisms per g of contaminated sample, Molds II (Molds II; [18])	Number of surviving microorganisms per g of contaminated sample, Molds II (Molds II; [19])	Number of surviving microorganisms per g of contaminated sample, Molds II (Molds II; [20])	further results
CC(=O)[O-].CC(=O)[O-].[Ca+2] [Calcium Acetate]	5.6 × 10^5 CFU/g	>3.0 × 10^6 CFU/g	>3.0 × 10^6 CFU/g	2.4 × 10^4 CFU/g	8.4 × 10^5 CFU/g	>3.0 × 10^6 CFU/g	>3.0 × 10^6 CFU/g	1.5 × 10^6 CFU/g	1.3 × 10^6 CFU/g	2.5 × 10^6 CFU/g	>3.0 × 10^6 CFU/g	>3.0 × 10^6 CFU/g	1.1 × 10^5 CFU/g	9.0 × 10^4 CFU/g	6.7 × 10^3 CFU/g	5.9 × 10^3 CFU/g	1.5 × 10^4 CFU/g	1.2 × 10^4 CFU/g	>1.0 × 10^5 CFU/g	3.5 × 10^4 CFU/g	Number of surviving microorganisms per g of contaminated sample, Thermophilic bacilli (Thermophilic bacilli; [21]): 2.1 × 10^3 CFU/g; Number of surviving microorganisms per g of contaminated sample, Thermophilic bacilli (Thermophilic bacilli; [22]): 6.0 × 10^2 CFU/g; Number of surviving microorganisms per g of contaminated sample, Thermophilic bacilli (Thermophilic bacilli; [23]): <10 CFU/g; Number of surviving microorganisms per g of contaminated sample, Thermophilic bacilli (Thermophilic bacilli; [24]): <10 CFU/g; Number of surviving microorganisms per g of contaminated sample, Gram-negative bacteria (Gram-negative bacteria; [1]): 1.7 × 10^4 CFU/g; Number of surviving microorganisms per g of contaminated sample, Gram-negative bacteria (Gram-negative bacteria; [2]): 1.3 × 10^4 CFU/g; Number of surviving microorganisms per g of contaminated sample, Gram-negative bacteria (Gram-negative bacteria; [3]): 2.2 × 10^3 CFU/g; Number of surviving microorganisms per g of contaminated sample, Gram-negative bacteria (Gram-negative bacteria; [4]): <100 CFU/g; Number of surviving microorganisms per g of contaminated sample, Bacilli (Bacilli; [25]): 1.6 × 10^3 CFU/g; Number of surviving microorganisms per g of contaminated sample, Bacilli (Bacilli; [26]): 1.0 × 10^3 CFU/g; Number of surviving microorganisms per g of contaminated sample, Bacilli (Bacilli; [27]): 1.8 × 10^3 CFU/g; Number of surviving microorganisms per g of contaminated sample, Bacilli (Bacilli; [28]): 1.8 × 10^3 CFU/g; Number of surviving microorganisms per g of contaminated sample, Molds I (Molds I; [29]): 1.1 × 10^4 CFU/g; Number of surviving microorganisms per g of contaminated sample, Molds I (Molds I; [30]): 2.2 × 10^3 CFU/g; Number of surviving microorganisms per g of contaminated sample, Molds I (Molds I; [31]): 7.6 × 10^3 CFU/g; Number of surviving microorganisms per g of contaminated sample, Molds I (Molds I; [32]): 4.5 × 10^4 CFU/g
O=C[O-].O=C[O-].[Ca+2] [Calcium Formate]	4.4 × 10^3 CFU/g	2.5 × 10^4 CFU/g	>3.0 × 10^6 CFU/g	>3.0 × 10^6 CFU/g	8.7 × 10^5 CFU/g	2.5 × 10^6 CFU/g	>3.0 × 10^6 CFU/g	>3.0 × 10^6 CFU/g	7.4 × 10^5 CFU/g	1.0 × 10^6 CFU/g	>3.0 × 10^6 CFU/g	>3.0 × 10^6 CFU/g	2.2 × 10^4 CFU/g	8.9 × 10^3 CFU/g	4.6 × 10^3 CFU/g	2.0 × 10^3 CFU/g	1.0 × 10^4 CFU/g	1.5 × 10^3 CFU/g	>3.0 × 10^4 CFU/g	3.9 × 10^5 CFU/g	Number of surviving microorganisms per g of contaminated sample, Clostridia (Clostridia; 1 day after inoculation (2.9 × 10^4)): 4.0 × 10^2 CFU/g; Number of surviving microorganisms per g of contaminated sample, Clostridia (Clostridia; 3 days after inoculation (2.9 × 10^4)): 2.0 × 10^2 CFU/g; Number of surviving microorganisms per g of contaminated sample, Clostridia (Clostridia; 7 days after inoculation (2.9 × 10^4)): <100 CFU/g; Number of surviving microorganisms per g of contaminated sample, Clostridia (Clostridia; 14 days after inoculation (2.9 × 10^4)): 10 CFU/g; Number of surviving microorganisms per g of contaminated sample, Thermophilic bacilli (Thermophilic bacilli; [21]): 2.3 × 10^3 CFU/g; Number of surviving microorganisms per g of contaminated sample, Thermophilic bacilli (Thermophilic bacilli; [22]): 8.0 × 10^2 CFU/g; Number of surviving microorganisms per g of contaminated sample, Thermophilic bacilli (Thermophilic bacilli; [23]): 6.0 × 10^2 CFU/g; Number of surviving microorganisms per g of contaminated sample, Thermophilic bacilli (Thermophilic bacilli; [24]): <10 CFU/g; Number of surviving microorganisms per g of contaminated sample, Gram-negative bacteria (Gram-negative bacteria; [1]): 1.5 × 10^4 CFU/g; Number of surviving microorganisms per g of contaminated sample, Gram-negative bacteria (Gram-negative bacteria; [2]): 3.6 × 10^3 CFU/g; Number of surviving microorganisms per g of contaminated sample, Gram-negative bacteria (Gram-negative bacteria; [3]): 2.3 × 10^3 CFU/g; Number of surviving microorganisms per g of contaminated sample, Gram-negative bacteria (Gram-negative bacteria; [4]): 75 CFU/g; Number of surviving microorganisms per g of contaminated sample, Bacilli (Bacilli; [25]): 1.7 × 10^3 CFU/g; Number of surviving microorganisms per g of contaminated sample, Bacilli (Bacilli; [26]): 1.5 × 10^3 CFU/g; Number of surviving microorganisms per g of contaminated sample, Bacilli (Bacilli; [27]): 1.4 × 10^3 CFU/g; Number of surviving microorganisms per g of contaminated sample, Bacilli (Bacilli; [28]): 1.7 × 10^3 CFU/g; Number of surviving microorganisms per g of contaminated sample, Molds I (Molds I; [29]): 4.1 × 10^3 CFU/g; Number of surviving microorganisms per g of contaminated sample, Molds I (Molds I; [30]): 2.9 × 10^3 CFU/g; Number of surviving microorganisms per g of contaminated sample, Molds I (Molds I; [31]): 1.9 × 10^3 CFU/g; Number of surviving microorganisms per g of contaminated sample, Molds I (Molds I; [32]): 2.6 × 10^3 CFU/g
